{"source": "patent US5681738A", "about": "“Use of 10-oxo-trans-8-decenoic acid in mushroom cultivation” (The Penn State Research Foundation, priority 1992, dated 1997)", "origin": "cited, not measured here", "system": "seed chamber of runner bean", "conditions": "Zimmerman et al., (1979); cited from earlier work"}
{"smiles": "O=C/C=C/CCCCCCCCC(=O)O", "note": "[12-Oxo-trans-10-dodecenoic acid]", "values": [{"measurement": "formation of an intumescence on seed chamber (in words)", "result": "found to induce the formation of an intumescence"}]}
